Values of other authors, collected in EP1112064B1, “METHOD FOR PREPARING NOVEL FENOFIBRATE GALENIC FORMULATIONS, GALENIC FORMULATIONS OBTAINED AND APPLICATIONS” (CLL Pharma, Arenas, priority 1998, dated 2000).

résorption intestinale (administered in sunflower oil): presque complète | demi-vie d'élimination (in vivo): ~20 heures | dose de fénofibrate administrée résorbée (one 300 mg capsule during a meal, reaches the blood as fenofibric acid): 60%
Compound: CC(C)OC(=O)C(C)(C)Oc1ccc(C(=O)c2ccc(Cl)cc2)cc1 [fénofibrate, 2-(4-(4-chlorobenzoyl)-phénoxy)-2-méthyl propionate d'isopropyle]
